Measurements taken from publication PMC7037671, “Naphthoquinone Derivatives with Anti-Inflammatory Activity from Mangrove-Derived Endophytic Fungus Talaromyces sp. SK-S009” (Molecules, 2020).
Where two headings read alike, the source gives them in different places. Blank lines part the entries; values can stand above or below the molecule they belong to.

Experiments:
[1] = Cytotoxicity / cell viability by MTT assay; assay type: cell-based, murine; details: mouse, RAW 264.7 cells, MTT assay
Experimental: (§1) The nitrite/nitrate oxidized from NO was detected by the Griess reagent as previously reported with slight modifications. The murine macrophage cell line (RAW 264.7 cells) were seeded in 96-well plates at a density of 1 × 10^5 cells/well and preincubated for 12 h. The tested compounds were dissolved in dimethylsulfoxide (DMSO) and diluted with Dulbecco’s Modified Eagle Medium (DMEM) medium to a final concentration (final DMSO concentration <0.1% in all assays). Indomethacin was used as the positive control. Cells were stimulated with 1µg/mL of lipopolysaccharide (LPS, Sigma, St. Louis, MO, USA) with or without tested compounds for 24 h. Then culture supernatant was mixed with an equal volume of Griess reagent I and II (Beyotime, Shanghai, China), and measured at 540 nm using a microplate reader (Bio-Rad Laboratories, Inc., Kyoto, Japan). Cell viability was evaluated using MTT assay.

RAW 264.7 cells = experiment: Cytotoxicity / cell viability by MTT assay; assay type: cell-based, murine; details: CC50 (MTT) / IC50 (NO production)
Experimental: as §1

[2] = system: LPS-induced NO production in the murine macrophage cell line (RAW 264.7 cells); experiment: Inhibition of LPS-induced NO production (Griess reagent); assay type: cell-based; details: Mus musculus, read-out: IC50 against LPS-induced NO production
Experimental: as §1

[3] = system: tumor necrosis factor (TNF)-α mRNA; experiment: Real-time PCR, TNF-α mRNA expression in LPS-stimulated RAW 264.7 cells; assay type: cell-based, murine
Experimental: (§2) Figure 4 RAW 264.7 murine macrophage cells were pre-incubated for 12h, and then cells were pretreated with compound 9 at the indicated concentration for 1 h and incubated with LPS (1 μg/mL) for 12h (real-time PCR). The effect of compound 9 on the mRNA expressions of inducible nitric oxide synthase (iNOS) (A), cyclooxygenase-2 (COX-2)(B), tumor necrosis factor (TNF)-α (C), interleukin (IL)-6 (D), and IL-1β (E) were detected by real-time PCR. The data represent the mean values ± SD of three experiments, * p < 0.05, ** p < 0.01 compared to LPS-treated group.
(§3) RAW264.7 cells were placed in a 6-well plate at a density of 1 × 10^6 cells/well and incubated for 12 h. Cultured cells were pretreated with compound 9 (1, 2, 4 μM/L) for 1 h and incubated with LPS (1 μg/mL) for 12 h. RNA was extracted with Trizol Reagent (Takara Bio Inc., Otsu, Japan) according to the manufacturer’s instructions, and cDNA was reverse transcribed from total RNA using a Superscript III system (Takara Bio Inc., Otsu, Japan). PCR amplification was carried out using PikoReal™ (Thermo Fisher Scientific, MA, US) and specific primers. The optimal conditions for PCR amplification of the cDNA were established by following the manufacturer’s instructions. Relative gene expression was calculated using the comparative Ct method (2^−ΔΔCt) with glyceraldehyde-3-phosphate dehydrogenase (GAPDH) as an internal control. […]

[4] = system: inducible nitric oxide synthase (iNOS) mRNA; experiment: Real-time PCR, iNOS mRNA expression in LPS-stimulated RAW 264.7 cells; assay type: cell-based, murine; details: LPS (1 μg/mL) 12 h, 1 h pretreatment, 1, 2, 4 μM, RT-PCR
Experimental: as §2, §3

interleukin (IL)-1β mRNA = experiment: Real-time PCR, IL-1β mRNA expression in LPS-stimulated RAW 264.7 cells; assay type: cell-based, murine
Experimental: as §2, §3

[5] = system: cyclooxygenase-2 (COX-2) mRNA; experiment: Real-time PCR, COX-2 mRNA expression in LPS-stimulated RAW 264.7 cells; assay type: cell-based, murine; details: LPS (1 μg/mL) 12 h, 1 h pretreatment, 1, 2, 4 μM, RT-PCR
Experimental: as §2, §3

IL-6 mRNA = experiment: Real-time PCR, IL-6 mRNA expression in LPS-stimulated RAW 264.7 cells; assay type: cell-based, murine
Experimental: as §2, §3

[6] = RAW 264.7 macrophage cells, means ± SD, n = 3, read-out: CC50
[7] = RAW264.7, RAW 264.7 cells, LPS 1 µg/mL, 24 h, means ± SD, n = 3
[8] = RAW 264.7 macrophage cells, tested at 50 μM, read-out: CC50 (cytotoxicity, class symbol)
[9] = 2.0 μM, compared with the control groups
[10] = LPS (1 μg/mL) 12 h, 1 h pretreatment, 1, 2, 4 μM, RT-PCR

Structure (SMILES): COc1cc(O)c2c(c1)C(=O)C(C[C@H](C)O)=C(C)C2=O [Compound 1, Talanaphthoquinone A]
CC50 at 24 h [1, 6]: 30.7 ± 0.5 µM
SI (selectivity index, CC50/IC50) (RAW 264.7 cells): 7.9
IC50 [2, 7]: 3.9 ± 0.5 µM

melting point: 157.7 to 159.3 °C
Structure (SMILES): COC1=CC(=O)c2c(O)c(C)c3c(c2C1=O)OC(CO)C3 (stereo not shown) [Compound 2, Talanaphthoquinone B]
CC50 at 24 h [1, 8]: > 50 µM
IC50 [2, 7]: 49.7 ± 1.5 µM

Structure (SMILES): COC1=CC(=O)c2c(O)c(C)c3c(c2C1=O)OC(C)C3 (stereo not shown) [Compound 3, anhydrojavanicin]
CC50 at 24 h ([1]; tested at 50 μM, read-out: CC50 (cytotoxicity, class symbol)): > 50 µM
IC50 [2, 7]: 16 ± 0.2 µM

Structure (SMILES): COC1=CC(=O)c2c(O)c(CO)c3c(c2C1=O)OC(C)C3 (stereo not shown) [Compound 4, 2,3-dihydro-5-hydroxy-4-hydroxymethyl-8-methoxy-2-methylnaphtho[1,2-b]furan-6,9-dione]
CC50 at 24 h [1, 8]: > 50 µM
IC50 [2, 7]: 22.6 ± 0.5 µM

Structure (SMILES): COC1=CC(=O)c2c(O)c(C)c3cc(C)oc3c2C1=O [Compound 5, anhydrojavanicin]
CC50 at 24 h [1, 8]: > 50 µM
IC50 [2, 7]: 11.2 ± 0.3 µM

Structure (SMILES): COC1=CC(=O)c2c(O)c3c(c(O)c2C1=O)C=C(C)OC3 [Compound 6, anhydrofusarubin]
CC50 at 24 h [1, 8]: > 50 µM
IC50 ([2]; RAW264.7, 24 h): 5.2 ± 0.1 µM

Structure (SMILES): CCc1c(OC)cc2c(c1O)C(=O)C=C(OC)C2=O [Compound 8, 6-ethyl-2,7-dimethoxyjuglone]
CC50 at 24 h [1, 8]: > 50 µM
IC50 [2, 7]: 7.7 ± 0.3 µM

Structure (SMILES): COC1=CC(=O)c2c(cc(OC)c(C(C)OC(C)=O)c2O)C1=O (stereo not shown) [Compound 9, 6-[1-(acetyloxy)ethyl]-5-hydroxy-2,7-dimethoxy-1,4-naphthalenedione]
inhibition of TNF-α mRNA expression [3, 9]: about 80%
effect on TNF-α mRNA expression [3, 10]: apparently reduced
effect on iNOS mRNA expression [4]: apparently reduced
inhibition of IL-1β mRNA expression (interleukin (IL)-1β mRNA; [9]): about 80%
effect on IL-1β mRNA expression (interleukin (IL)-1β mRNA; [10]): apparently reduced
CC50 at 24 h [1, 6]: 50.3 ± 1.5 µM
SI (selectivity index, CC50/IC50) (RAW 264.7 cells): 29.6
effect on COX-2 mRNA expression [5]: apparently reduced
inhibition of IL-6 mRNA expression (IL-6 mRNA; [9]): about 80%
effect on IL-6 mRNA expression (IL-6 mRNA; [10]): apparently reduced
IC50 [2, 7]: 1.7 ± 0.2 µM

Structure (SMILES): COC1=CC(=O)c2c(cc(OC)c(C(C)O)c2O)C1=O (stereo not shown) [Compound 10, 5-hydroxy-6-(1-hydroxyethyl)-2,7-dimethoxy-1,4-naphthalenedione]
CC50 at 24 h [1, 6]: 15.8 ± 0.4 µM
SI (selectivity index, CC50/IC50) (RAW 264.7 cells): 2.1
IC50 [2, 7]: 7.5 ± 0.2 µM

Structure (SMILES): COC1=CC(=O)c2c(O)c(C)c(CC(C)O)c(O)c2C1=O (stereo not shown) [Compound 11, solaniol]
CC50 at 24 h ([1]; means ± SD, n = 3, read-out: CC50): 59.2 ± 1.5 µM
SI (selectivity index, CC50/IC50) (RAW 264.7 cells): 3.8
IC50 [2, 7]: 15.5 ± 0.6 µM

Structure (SMILES): COC1=CC(=O)c2c(O)c(C)c(CC(C)=O)c(O)c2C1=O [Compound 12, javanicin]
CC50 at 24 h [1, 6]: 48.4 ± 1.3 µM
SI (selectivity index, CC50/IC50) (RAW 264.7 cells): 8.6
IC50 [2, 7]: 5.6 ± 0.3 µM

Structure (SMILES): COc1ccc2c(c1)c(CC(=O)O)c(C)n2C(=O)c1ccc(Cl)cc1 [Indomethacin, reference compound]
IC50 [2, 7]: 26.3 ± 0.6 µM
